# Peptide text beside a SMILES is read from it.
# Biological target: T1, DppA1 (Pseudomonas aeruginosa, UniProt A0A0H2ZGV2)
# T1 construct: C-terminal TwinStrepTag, codon-optimized gene, periplasmic expression in E. coli BL21 (pET22b), StrepTrap purified
# Assay: differential scanning fluorimetry (SYPRO Orange)
# Format: binding
# Settings: 10 µM protein, 250 µM peptide, PBS
# T1 sequence (A0A0H2ZGV2 30-537): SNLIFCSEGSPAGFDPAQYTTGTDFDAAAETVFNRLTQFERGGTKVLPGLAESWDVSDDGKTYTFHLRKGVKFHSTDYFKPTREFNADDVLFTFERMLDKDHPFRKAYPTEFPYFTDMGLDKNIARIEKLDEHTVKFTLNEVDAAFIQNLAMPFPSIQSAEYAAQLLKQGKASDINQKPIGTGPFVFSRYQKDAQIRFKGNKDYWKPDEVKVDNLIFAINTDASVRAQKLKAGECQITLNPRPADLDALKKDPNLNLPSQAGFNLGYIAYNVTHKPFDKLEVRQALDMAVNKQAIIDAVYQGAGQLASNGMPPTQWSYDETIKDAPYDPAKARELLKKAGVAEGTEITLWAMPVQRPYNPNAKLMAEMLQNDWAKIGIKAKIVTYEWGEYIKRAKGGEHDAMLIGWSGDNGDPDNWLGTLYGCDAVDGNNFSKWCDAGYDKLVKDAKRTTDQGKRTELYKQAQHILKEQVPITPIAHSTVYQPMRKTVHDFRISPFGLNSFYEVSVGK
structure (smiles),measurement,value
C[C@H](N)C(=O)NCC(=O)O [Ala-Gly] (H-Ala-Gly-OH),ΔTm,8.6 °C

# From publication PMC12728205, “The solute-binding proteins DppA1–5 of Pseudomonas aeruginosa have distinct substrate profiles” (Scientific Reports, 2025)
